Experimental data as given in US10144706B2 (BRISTOL-MYERS SQUIBB COMPANY, priority 2016, dated 2018).

Biological target: T1, PD-1/PD-L1 interaction (PD-1-Ig / PD-L1-His) (Homo sapiens, UniProt Q9NZQ7)
T1 construct: hPDL1(18-239)-TVMV-His; TVMV protease site linker (C); made in house; host or cells: HEK293T
Experiment: PD-1/PD-L1 Homogenous Time-Resolved Fluorescence (HTRF) binding assay
Settings: IC50 range class; PD-L1-His 10 nM, PD-1-Ig 20 nM; read-out: Range or IC50
Method in brief: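 Human PD-L1-His (10 nM final) was pre-incubated with inhibitor for 15 min, then PD-1-Ig (20 nM final) was added for a further 15 min in dPBS with 0.1% BSA and 0.05% Tween-20. Binding was detected by HTRF using Eu-cryptate anti-Ig (1 nM) and APC anti-His (20 nM).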

T1 sequence (Q9NZQ7 with tags, fused parts or gaps): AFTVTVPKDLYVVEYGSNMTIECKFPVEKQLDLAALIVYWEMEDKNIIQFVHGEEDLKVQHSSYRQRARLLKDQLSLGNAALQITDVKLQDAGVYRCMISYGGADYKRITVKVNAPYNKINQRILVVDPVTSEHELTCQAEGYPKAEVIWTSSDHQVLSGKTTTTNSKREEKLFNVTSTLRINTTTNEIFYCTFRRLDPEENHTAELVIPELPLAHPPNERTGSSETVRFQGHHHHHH

| Structure (SMILES) | IC50 [nM] |
| --- | --- |
| Cc1c(COc2cc(OCc3ccc(-n4cccn4)nc3)c(CN(C)C(CO)CO)cc2Cl)cccc1-c1cccc(COc2cc(OCc3ccc(-n4cccn4)nc3)c(CN(C)C(CO)CO)cc2Cl)c1C [Example 5028, 2,2′-((((((2,2′-dimethyl-[1,1′-biphenyl]-3,3′-diyl)bis(methylene))bis(oxy))bis(2-((6-(1H-pyrazol-1-yl)pyridin-3-yl)methoxy)-5-chloro-4,1-phenylene))bis(methylene))bis(methylazanediyl))bis(propane-1,3-diol)] | 90.1 to 1000 |
| Cc1c(COc2cc(OCc3ccc(-n4cccn4)nc3)c(CN(C)[C@H](C(=O)O)[C@@H](C)O)cc2Cl)cccc1-c1cccc(COc2cc(OCc3ccc(-n4cccn4)nc3)c(CN(C)[C@H](C(=O)O)[C@@H](C)O)cc2Cl)c1C [Example 5029, (2S,2′S,3R,3′R)-2,2′-((((((2,2′-dimethyl-[1,1′-biphenyl]-3,3′-diyl)bis(methylene))bis(oxy))bis(2-((6-(1H-pyrazol-1-yl)pyridin-3-yl)methoxy)-5-chloro-4,1-phenylene))bis(methylene))bis(methylazanediyl))bis(3-hydroxybutanoic acid)] | 20.1 to 90 |
| COc1cc(OCc2cccc(-c3cccc(COc4cc(OC)c(CNCc5cncs5)cc4Cl)c3C)c2C)c(Cl)cc1CNCc1cncs1 [Example 5034, 1,1′-((((2,2′-dimethyl-[1,1′-biphenyl]-3,3′-diyl)bis(methylene))bis(oxy))bis(5-chloro-2-methoxy-4,1-phenylene))bis(N-(thiazol-5-ylmethyl)methanamine)] | 20.1 to 90 |
| COc1cc(OCc2cccc(-c3cccc(COc4cc(OC)c(CNCCC(=O)O)cc4Cl)c3C)c2C)c(Cl)cc1CNCCC(=O)O [Example 5035, 3,3′-((((((2,2′-dimethyl-[1,1′-biphenyl]-3,3′-diyl)bis(methylene))bis(oxy))bis(5-chloro-2-methoxy-4,1-phenylene))bis(methylene))bis(azanediyl))dipropionic acid] | 0.04 to 20 |
| COc1cc(OCc2cccc(-c3cccc(COc4cc(OC)c(CN[C@@H](CCO)C(=O)O)cc4Cl)c3C)c2C)c(Cl)cc1CN[C@@H](CCO)C(=O)O [Example 5036, (2S,2′S)-2,2′-((((((2,2′-dimethyl-[1,1′-biphenyl]-3,3′-diyl)bis(methylene))bis(oxy))bis(5-chloro-2-methoxy-4,1-phenylene))bis(methylene))bis(azanediyl))bis(4-hydroxybutanoic acid)] | 0.04 to 20 |
| COc1cc(OCc2cccc(-c3cccc(COc4cc(OC)c(CN(C)Cc5cc[nH]n5)cc4Cl)c3C)c2C)c(Cl)cc1CN(C)Cc1cc[nH]n1 [Example 5037, 1,1′-((((2,2′-dimethyl-[1,1′-biphenyl]-3,3′-diyl)bis(methylene))bis(oxy))bis(5-chloro-2-methoxy-4,1-phenylene))bis(N-((1H-pyrazol-3-yl)methyl)-N-methylmethanamine)] | 20.1 to 90 |
| COc1cc(OCc2cccc(-c3cccc(COc4cc(OC)c(CN(C)Cc5cncnc5)cc4Cl)c3C)c2C)c(Cl)cc1CN(C)Cc1cncnc1 [Example 5038, 1,1′-((((2,2′-dimethyl-[1,1′-biphenyl]-3,3′-diyl)bis(methylene))bis(oxy))bis(5-chloro-2-methoxy-4,1-phenylene))bis(N-methyl-N-(pyrimidin-5-ylmethyl)methanamine)] | 90.1 to 1000 |
| COc1cc(OCc2cccc(-c3cccc(COc4cc(OC)c(CN(C)Cc5cncs5)cc4Cl)c3C)c2C)c(Cl)cc1CN(C)Cc1cncs1 [Example 5039, 1,1′-((((2,2′-dimethyl-[1,1′-biphenyl]-3,3′-diyl)bis(methylene))bis(oxy))bis(5-chloro-2-methoxy-4,1-phenylene))bis(N-methyl-N-(thiazol-5-ylmethyl)methanamine)] | 90.1 to 1000 |
| Cc1cc(CN2CCCC[C@H]2C(=O)O)ccc1OCc1cccc(-c2cccc(COc3ccc(CN4CCCC[C@H]4C(=O)O)cc3C)c2C)c1C [Example 5500, (2S,2′S)-1,1′-(((((2,2′-dimethyl-[1,1′-biphenyl]-3,3′-diyl)bis(methylene))bis(oxy))bis(3-methyl-4,1-phenylene))bis(methylene))bis(piperidine-2-carboxylic acid)] | 90.1 to 1000 |
| Cc1cc(OCc2cccc(-c3cccc(COc4cc(C)c(CN5CCCC[C@H]5C(=O)O)cc4Cl)c3C)c2C)c(Cl)cc1CN1CCCC[C@H]1C(=O)O [Example 5501, (2S,2′S)-1,1′-(((((2,2′-dimethyl-[1,1′-biphenyl]-3,3′-diyl)bis(methylene))bis(oxy))bis(5-chloro-2-methyl-4,1-phenylene))bis(methylene))bis(piperidine-2-carboxylic acid)] | 0.04 to 20 |
| Cc1cc(OCc2cccc(-c3cccc(COc4cc(C)c(CNCCC(=O)O)cc4Cl)c3C)c2C)c(Cl)cc1CNCCC(=O)O [Example 5502, 3,3′-((((((2,2′-dimethyl-[1,1′-biphenyl]-3,3′-diyl)bis(methylene))bis(oxy))bis(5-chloro-2-methyl-4,1-phenylene))bis(methylene))bis(azanediyl))dipropionic acid] | 0.04 to 20 |
| Cc1cc(OCc2cccc(-c3cccc(COc4cc(OCc5cncc(C#N)c5)c(CN5CCCC[C@H]5C(=O)O)cc4Cl)c3C)c2C)c(Cl)cc1CN1CCCC[C@H]1C(=O)O [Example 5503, (S)-1-(4-((3′-((4-(((S)-2-carboxypiperidin-1-yl)methyl)-2-chloro-5-((5-cyanopyridin-3-yl)methoxy)phenoxy)methyl)-2,2′-dimethyl-[1,1′-biphenyl]-3-yl)methoxy)-5-chloro-2-methylbenzyl)piperidine-2-carboxylic acid] | 0.04 to 20 |
| Cc1cc(OCc2cccc(-c3cccc(COc4cc(OCc5cncc(C#N)c5)c(CNCCC(=O)O)cc4Cl)c3C)c2C)c(Cl)cc1CNCCC(=O)O [Example 5504, 3-((4-((3′-((4-(((2-carboxyethyl)amino)methyl)-2-chloro-5-((5-cyanopyridin-3-yl)methoxy)phenoxy)methyl)-2,2′-dimethyl-[1,1′-biphenyl]-3-yl)methoxy)-5-chloro-2-methylbenzyl)amino)propanoic acid] | 0.04 to 20 |

More lines, now with the values ahead:

| IC50 [nM] | Structure (SMILES) |
| --- | --- |
| 0.04 to 20 | Cc1c(COc2cc(OCc3ccc(-n4cccn4)nc3)c(CN(C)[C@@H](CCO)C(=O)O)cc2Cl)cccc1-c1cccc(COc2cc(OCc3ccc(-n4cccn4)nc3)c(CN(C)[C@@H](CCO)C(=O)O)cc2Cl)c1C [Example 5025, (2S,2′S)-2,2′-((((((2,2′-dimethyl-[1,1′-biphenyl]-3,3′-diyl)bis(methylene))bis(oxy))bis(2-((6-(1H-pyrazol-1-yl)pyridin-3-yl)methoxy)-5-chloro-4,1-phenylene))bis(methylene))bis(methylazanediyl))bis(4-hydroxybutanoic acid)] |
| 0.04 to 20 | CCC[C@@H](C(=O)O)N(C)Cc1cc(Cl)c(OCc2cccc(-c3cccc(COc4cc(OCc5ccc(-n6cccn6)nc5)c(CN(C)[C@@H](CCC)C(=O)O)cc4Cl)c3C)c2C)cc1OCc1ccc(-n2cccn2)nc1 [Example 5026, (2S,2′S)-2,2′-((((((2,2′-dimethyl-[1,1′-biphenyl]-3,3′-diyl)bis(methylene))bis(oxy))bis(2-((6-(1H-pyrazol-1-yl)pyridin-3-yl)methoxy)-5-chloro-4,1-phenylene))bis(methylene))bis(methylazanediyl))dipentanoic acid] |
| 0.04 to 20 | Cc1c(COc2cc(OCc3ccc(-n4cccn4)nc3)c(CN(C)[C@@](C)(CO)C(=O)O)cc2Cl)cccc1-c1cccc(COc2cc(OCc3ccc(-n4cccn4)nc3)c(CN(C)[C@@](C)(CO)C(=O)O)cc2Cl)c1C [Example 5027, (2S,2′S)-2,2′-((((((2,2′-dimethyl-[1,1′-biphenyl]-3,3′-diyl)bis(methylene))bis(oxy))bis(2-((6-(1H-pyrazol-1-yl)pyridin-3-yl)methoxy)-5-chloro-4,1-phenylene))bis(methylene))bis(methylazanediyl))bis(3-hydroxy-2-methylpropanoic acid)] |
| 0.04 to 20 | COc1cc(OCc2cccc(-c3cccc(COc4cc(OCc5cncc(C#N)c5)c(CN(C)[C@@H](CCO)C(=O)O)cc4Cl)c3C)c2C)c(Cl)cc1CN(C)[C@@H](CCO)C(=O)O [Example 5030, N-(4-((3′-((4-((((S)-1-carboxy-3-hydroxypropyl)(methyl)amino)methyl)-2-chloro-5-((5-cyanopyridin-3-yl)methoxy)phenoxy)methyl)-2,2′-dimethyl-[1,1′-biphenyl]-3-yl)methoxy)-5-chloro-2-methoxybenzyl)-N-methyl-L-homoserine] |
| 0.04 to 20 | COc1cc(OCc2cccc(-c3cccc(COc4cc(OCc5cncc(C#N)c5)c(CN(C)CCC(=O)O)cc4Cl)c3C)c2C)c(Cl)cc1CN(C)CCC(=O)O [Example 5031, 3-((4-((3′-((4-(((2-carboxyethyl)(methyl)amino)methyl)-2-chloro-5-((5-cyanopyridin-3-yl)methoxy)phenoxy)methyl)-2,2′-dimethyl-[1,1′-biphenyl]-3-yl)methoxy)-5-chloro-2-methoxybenzyl)(methyl)amino)propanoic acid] |
| 0.04 to 20 | COc1cc(OCc2cccc(-c3cccc(COc4cc(OC)c(CNCc5cc[nH]n5)cc4Cl)c3C)c2C)c(Cl)cc1CNCc1cc[nH]n1 [Example 5032, 1,1′-((((2,2′-dimethyl-[1,1′-biphenyl]-3,3′-diyl)bis(methylene))bis(oxy))bis(5-chloro-2-methoxy-4,1-phenylene))bis(N-((1H-pyrazol-3-yl)methyl)methanamine)] |
| 0.04 to 20 | COc1cc(OCc2cccc(-c3cccc(COc4cc(OC)c(CNCc5cncnc5)cc4Cl)c3C)c2C)c(Cl)cc1CNCc1cncnc1 [Example 5033, 1,1′-((((2,2′-dimethyl-[1,1′-biphenyl]-3,3′-diyl)bis(methylene))bis(oxy))bis(5-chloro-2-methoxy-4,1-phenylene))bis(N-(pyrimidin-5-ylmethyl)methanamine)] |
